The record followed here is patent US5731345A, “Seco-D steroids active on the cardiovascular system and pharmaceutical compositions containing same” (Sigma-Tau Industrie Farmaceutiche Riunite S.p.A, priority 1995, dated 1998).

Test [1] relates to spontaneous hypertensive rats (MHS). The test is described as follows: prevention of development of hypertension in pre-hypertensive rats, indirect tail-cuff plethysmography (SBP and HR). The class given is in vivo, rat. The following applies: 5 week treatment, 20 mg/kg/os daily in 0.5% w/v Methocel; for SBP: controls 172+/-5.0; for HR: controls 380+/-6.3. The protocol: Systolic blood pressure (SBP) and heart rate (HR) were measured by an indirect tail-cuff plethysmographic method in […] pre-hypertensive male rats, (MHS or SHR), i.e. before hypertension onset so as to register the basal value of SBP. The rats were then subdivided in groups of 7 animals each and the groups were divided in control and treated group. The compound, suspended in 0.5% (w/v) Methocel, was orally administered daily for at least five weeks. The control group received only Methocel.
SBP and HR were measured weekly, 6 and 24 hours after the treatment.
After five weeks of treatment, when the hypertension was fully developed in the control group ([…]) a one-week wash-out was conducted in order to verify whether SBP would remain low or restored to the basal values of the control group.

Test [2] addresses T1, Na^+, K^+ -ATPase (Canis lupus familiaris, UniProt P50997).
T1 construct: from tissue
As to the kind of experiment: displacement of specific ^3 H-oubain binding from purified Na^+, K^+ -ATPase receptor. From the text: (§1) To test the affinity for the receptor site of the Na^+, K^+ -ATPase and the agonist or inhibitory activity on the enzyme, the following tests were used:
a) displacement of the specific ^3 H-oubain binding from the Na^+, K^+ -ATPase receptor purified according to Jorghensen (Jorghensen P., BBA, 1974, 356, 36) and Erdamnn (Erdmann E. et al., Arzneim. Forsh, 1984, 34, 1314);

In test [3] the target is Na^+, K^+ -ATPase. It is filed as biochemical. The following applies: purified Na^+, hydrolysis of ^32 P-ATP.
Source text: as §1
b) inhibition of the activity of the purified Na^+, K^+ -ATPase measured as % of hydrolysis of ^32 P-ATP in the presence and in the absence of the tested compound (Doucet A. et al., Am. J. Physiol., 1986, 251, F851).

Like-named read-outs stand apart in the source and are kept apart here.

With `CC[C@H](c1ccoc1)[C@@]1(C)CC[C@H]2[C@@H](CC[C@@H]3C[C@@H](O)CC[C@@]32C)[C@@H]1O` [Comp. I-a, 17β-(3-furyl)-14,15-seco-5βandrostan-3β,14β-diol], in test [1], the SBP is given as 155+/-4.3 mm Hg and the HR is recorded as 370+/-10.5 beats/min.
As for `CC[C@H](c1ccoc1)[C@@]1(C)CC[C@H]2[C@@H](CC[C@@H]3C[C@@H](O)CC[C@@]32C)C1=O` [Comp. I-c, 17β-(3-furyl)-14-oxo-14,15-seco-5β-androstan-3β-ol], at Na^+, K^+ -ATPase [2] (purified Na^+, K^+ -ATPase receptor, read-out: Binding ^3 H-oubain displacement -log IC50 (converted)), the IC50 was 6310 nM. Moreover, the “Inhibitory activity -log IC50” value at Na^+, K^+ -ATPase [3] was found to be 4.3.
As for `CC[C@H](C1=CC(=O)OC1)[C@@]1(C)CC[C@H]2[C@@H](CC[C@@H]3C[C@@H](O)CC[C@@]32C)C1=O` [Comp. I-d, 3β-hydroxy-14-oxo-14,15-seco-5β-card-20(22)-enolide], at Na^+, K^+ -ATPase [2], the IC50 is 200 nM. Besides, at Na^+, K^+ -ATPase [3], the “Inhibitory activity -log IC50” value came out at 5.6. Besides, in test [1], the SBP is 156+/-4.6 mm Hg and the HR is 383+/-11.4 beats/min.
For the compound `CC[C@H](C1=CC(=O)OC1)[C@@]1(C)CC[C@H]2[C@@H](CC[C@@H]3C[C@@H](O)CC[C@@]32C)[C@@H]1O` [Comp. I-e, 3β,14β-dihydroxy-14,15-seco-5β-card-20(22)-enolide], the IC50 at Na^+, K^+ -ATPase [2] is 126 nM. For the same compound, the “Inhibitory activity -log IC50” value at Na^+, K^+ -ATPase [3] is on record as 5.1.
In the case of `C[C@]12CC[C@H](O)C[C@H]1CC[C@H]1[C@H](O)[C@@](C)([C@H](CC#N)C3=CC(=O)OC3)CC[C@@H]12` [Comp. I-h, 3β,14β-dihydroxy-14,15-seco-5β-card-20(22)-enolide-15-nitrile], in test [1], the SBP is 160+/-7.8 mm Hg and the HR is given as 377+/-10.5 beats/min.
`CN(C)CCO/N=C/C[C@H](C1=CC(=O)OC1)[C@@]1(C)CC[C@H]2[C@@H](CC[C@@H]3C[C@@H](O)CC[C@@]32C)C1=O` [Comp. I-i, 3β-hydroxy-14-oxo-14,15-seco-5β-card-20(22)-enolide-15-(2-dimethylaminoethoxy-(E)-imino)] had an IC50 on Na^+, K^+ -ATPase [2] of 2510 nM. For the same compound, the “Inhibitory activity -log IC50” value at Na^+, K^+ -ATPase [3] is recorded as 4.0.
As for `CN(C)CCO/N=C\C[C@H](C1=CC(=O)OC1)[C@@]1(C)CC[C@H]2[C@@H](CC[C@@H]3C[C@@H](O)CC[C@@]32C)C1=O` [Comp. I-l, 3β-hydroxy-14-oxo-14,15-seco-5β-card-20(22)-enolide-15(2-dimethylaminoethoxy-(Z)-imino)], the 50% inhibitory concentration (IC50) on Na^+, K^+ -ATPase [2] was 3980 nM. In addition, the “Inhibitory activity -log IC50” value at Na^+, K^+ -ATPase [3] is on record as 4.2.
For the compound `C[C@]12CC[C@H](O)C[C@H]1CC[C@H]1C(=O)[C@@](C)([C@H](C/C=N/NC(=N)N)C3=CC(=O)OC3)CC[C@@H]12` [Comp. I-m, 3β-hydroxy-14-oxo-14,15-seco-5β-card-20(22)enolide-15-(E)-(guanidinoimino)], the IC50 on Na^+, K^+ -ATPase [2] is 3160 nM. Also, the “Inhibitory activity -log IC50” value on Na^+, K^+ -ATPase [3] was 4.1.
